# Values of other authors as cited in patent US10627374B2, “LC-MS configuration for purification and detection of analytes having a broad range of hydrophobicites” (COHESIVE TECHNOLOGIES INC., priority 2010, dated 2020).
# Read-outs that look alike come from different tables or passages of the source.
logP (Table 1),logP (Table 2),log P (approximate),Compound
−1.15,−1.15,,CS(=O)(=O)OCCCCOS(C)(=O)=O [Busulfan]
0.94,0.94,,CN(Cc1cnc2nc(N)nc(N)c2n1)c1ccc(C(=O)N[C@@H](CCC(=O)O)C(=O)O)cc1 [Methotrexate]
,−0.9,,O=c1[nH]cc(F)c(=O)[nH]1 [5-Fluorouracil]
2.07,2.07,,C[C@]12C=CC(=O)C=C1CC[C@@H]1[C@@H]2C(=O)C[C@@]2(C)[C@H]1CC[C@]2(O)C(=O)CO [Prednisone]
1.26,1.26,,C[C@]12CCC(=O)C=C1CC[C@@H]1[C@@H]2[C@@H](O)C[C@@]2(C)[C@H]1CC[C@]2(O)C(=O)CO [Cortisol (hydrocortisone)]
3.3,3.3,,C=CC[C@@H]1/C=C(\C)C[C@H](C)C[C@H](OC)[C@H]2O[C@@](O)(C(=O)C(=O)N3CCCC[C@H]3C(=O)O[C@H](/C(C)=C/[C@@H]3CC[C@@H](O)[C@H](OC)C3)[C@H](C)[C@@H](O)CC1=O)[C@H](C)C[C@@H]2OC [Tacrolimus]
5.01,5.01,about 5.01,CO[C@H]1C[C@@H]2CC[C@@H](C)[C@@](O)(O2)C(=O)C(=O)N2CCCC[C@H]2C(=O)O[C@H]([C@H](C)C[C@@H]2CC[C@@H](OCCO)[C@H](OC)C2)CC(=O)[C@H](C)/C=C(\C)[C@@H](O)[C@@H](OC)C(=O)[C@H](C)C[C@H](C)/C=C/C=C/C=C/1C [Everolimus]
